Here are results for 4 substances from patent US11912970B2, “Universal microfluidic culture system to analyze and control cell dynamics” (The University of Chicago, priority 2017, dated 2024).

Test [1] concerns NF-κB in 3T3 cells. In words: TNF-alpha induced NF-κB activation in 3T3 fibroblasts on chip. It is filed as cell-based, mouse. From the text:
The inventors took advantage of the long-term stable culture capability of the device and extended TNF-alpha induced NF-κB activation study in 3T3 fibroblasts for up to a week. The response of 3T3 cells to TNF-alpha stimulation is characterized by the nuclear translocation of transcription factor NF-κB, and visualized through automated fluorescence imaging (Kellogg, et al., 2015). Both single cells and a population of cells were successfully maintained in the present culture chambers, and were stimulated with series of TNF-alpha concentrations (0.001 to 100 ng/ml), which were simultaneously generated on-chip. […]
(§1) For image acquisition, a Nikon Ti-ECLIPSE microscope with an automated translation stage and a digital CMOS camera (ORCA-Flash 4.0, Hamamatsu, Japan) was used. […] Bright field and fluorescence images were acquired and analyzed using a customized MATLAB program (Mathworks, […]). The algorithm extracts single cell traces including position, nuclear and cytoplasm fluorescence level. For example, the 3T3 cell nuclear area in each image is identified via the fluorescent nuclear marker GFP, and then the mean value of the nuclear intensity of the p65-DsRed marker is measured, and plotted as a function of time.

The subject of test [2] is NSCs. Description: NSCs cell fate (self-renewal or differentiation) from Hes5 level and cell numbers under sequential stimulation. Type of test: cell-based, mouse. Particulars: for cell fate outcome: sequential input. From the text:
(§2) Murine hematopoietic stem cells (HSC) are isolated by FACSAria III flow cytometer (BD Biosciences) as Lin−/c-Kit+/Sca-1+/CD48−/CD150+/CD34− (lineage, Lin: CD3e/CD11b/CD19/CD41/B220/Gr-1/Ter-119), which are approximately 50% pure HSCs. Macrophage colony-stimulating factor (M-CSF), a myeloid cytokine released during infection and inflammation, is employed to induce HSCs differentiation. Human CD34+ cells were isolated from mononuclear cells using EasySepTM human CD34 positive selection kit (Stemcell Technologies, Vancouver, BC, Canada). CD34+CD38−CD45RA−CD90+CD49f+ HSCs were sorted using a FACSAria III flow cytometer (BD Biosciences). Pro- and anti-inflammatory cytokines including TNF, IFN[…], IL-6, IP10 and MCP-1 are introduced into the cellular environment as single ligand and in combination. Embryonic NSCs with Hes-GFP and Dcx-RFP reporters were isolated at embryonic day 13.5 from a transgenic mice carrying Hes-GFP and Dcx-RFP using standard protocol (Woo, et al., 2009; Basak, et al., 2007). The resulting primary cells were verified to carry both Hes5-GFP and Dcx-RFP after isolation and allowed to grow for few passages before use in the experiments (Giachino, et al., 2009). NSCs were cultured as neurospheres in culture media (DMEM/F12+Glutamax (Gibco No:31331-028); 10 U/ml penicillin; 10 ug/ml Streptomycin; B27 supplement (1:50); FGF growth factor 0.02 ug/ml). As NSCs are sensitive to environmental variations, cell handling protocol before loading into the chip is examined systematically (including dissociation, FACS sorting, etc.). To obtain the optimal results, NSCs spheres are collected and loaded into the chip 24 hours after fresh dissociation wherein each sphere contains ˜7 to 10 cells. To avoid potential artifacts due to prolonged in vitro culture, only NSCs within 10 passages were used in the study.
To investigate the role of combinatorial or temporal ordering of signals in NSC differentiation, the inventors cultured NSCs under combinatorial and sequential applications of the six regulatory ligands (FIG. 8A, FIGS. 22 and 23). For each independent NSC culture on the chip, the inventors introduced either one ligand each day (sequential inputs), or a combination of the selected ligands over a six-day period (combinatorial inputs). The inventors measured the ratio of the ligand-treated cells to untreated control for cell number and Hes5-GFP expression intensity. Each chip experiment consisted of 63 combinatorial and 720 sequential stimulation experiments, with duplicates (FIG. 8B). Multiple experiments were repeated resulting in nearly 3000 dynamic cultures analyzed. The inventors subjected all experimental outputs of NSC cell numbers and Hes5 expression to regression and classification tree analyses. […]

Test [3] deals with NSCs. In words: NSCs proliferation (cell number) under sequential ligand inputs (permutation test and decision tree analysis). Type of test: cell-based, mouse. The following applies: sequential input.
Text: as §2, with “To avoid potential artifacts due to prolonged in vitro culture, only NSCs within 10 passages were used in the study.” left out
as §1
(§3) To investigate the role of combinatorial or temporal ordering of signals in NSC differentiation, the inventors cultured NSCs under combinatorial and sequential applications of the six regulatory ligands (FIG. 8A, FIGS. 22 and 23). […] The inventors measured the ratio of the ligand-treated cells to untreated control for cell number and Hes5-GFP expression intensity. […] Multiple experiments were repeated resulting in nearly 3000 dynamic cultures analyzed. […]

Test [4] deals with Hes5-GFP expression in NSCs. Description: NSCs Hes5 expression under combinatorial ligand inputs (permutation test and decision tree analysis). It is filed as cell-based, mouse. Particulars: combinatorial input; for Hes5 expression, mean ratio relative to control: decision tree.
Text: as §2
For image acquisition, a Nikon Ti-ECLIPSE microscope with an automated translation stage and a digital CMOS camera (ORCA-Flash 4.0, Hamamatsu, Japan) was used. The stage and image acquisition was controlled via the NIS Elements software. Bright field and fluorescence images were acquired and analyzed using a customized MATLAB program (Mathworks, […]). The algorithm extracts single cell traces including position, nuclear and cytoplasm fluorescence level. For example, the 3T3 cell nuclear area in each image is identified via the fluorescent nuclear marker GFP, and then the mean value of the nuclear intensity of the p65-DsRed marker is measured, and plotted as a function of time.
To investigate the role of combinatorial or temporal ordering of signals in NSC differentiation, the inventors cultured NSCs under combinatorial and sequential applications of the six regulatory ligands (FIG. 8A, FIGS. 22 and 23). For each independent NSC culture on the chip, the inventors introduced either one ligand each day (sequential inputs), or a combination of the selected ligands over a six-day period (combinatorial inputs). The inventors measured the ratio of the ligand-treated cells to untreated control for cell number and Hes5-GFP expression intensity. Each chip experiment consisted of 63 combinatorial and 720 sequential stimulation experiments, with duplicates (FIG. 8B). Multiple experiments were repeated resulting in nearly 3000 dynamic cultures analyzed. The inventors subjected all experimental outputs of NSC cell numbers and Hes5 expression to regression and classification tree analyses. NSCs' cellular states were categorized into two groups: differentiation (with decreased Hes5 level and cell numbers) and self-renewal (with increased Hes5 level and cell numbers) (FIG. 8D).
In this work, the inventors use decision tree analysis to generate descriptive and predictive models which map measurements about cell phenotypic features (i.e., cell count and Hes5-GFP expression) to experimental conditions (i.e., sequential and combinatorial application of six regulatory ligands) (Breiman, 1984). […]

The test system of test [5] is Hes5-GFP expression in NSCs. Description: NSCs Hes5 level with sole presence of one ligand, on-chip culture. It is filed as cell-based, mouse. The protocol: FIG. 6B depicts a histogram of Hes5-GFP expression in NSCs before (red) and after (black) one week culture with 100 ng/ml PDGF. High levels of Hes5 in NSCs indicate maintenance of stem cell state, while reduced Hes5 indicates progress towards differentiation.
(§4) Murine hematopoietic stem cells (HSC) are isolated by FACSAria III flow cytometer (BD Biosciences) as Lin−/c-Kit+/Sca-1+/CD48−/CD150+/CD34− (lineage, Lin: CD3e/CD11b/CD19/CD41/B220/Gr-1/Ter-119), which are approximately 50% pure HSCs. Macrophage colony-stimulating factor (M-CSF), a myeloid cytokine released during infection and inflammation, is employed to induce HSCs differentiation. […]
as §1

Test [6] relates to Hes5-GFP expression in NSCs. In words: NSCs Hes5-GFP expression under sequential ligand inputs (permutation test and decision tree analysis). Type of test: cell-based, mouse. The following applies: for Hes5 expression relative to control: sequential input.
Text: as §2, with “To avoid potential artifacts due to prolonged in vitro culture, only NSCs within 10 passages were used in the study.” left out
as §1, §3

In test [7] the test system is NSCs. Description: NSCs proliferation (cell number) under combinatorial ligand inputs (permutation test and decision tree analysis). Type of test: cell-based, mouse. Particulars: ligands in isolation or as a pair (synergy).
Text: as §4, with “differentiation. Human CD34+ cells were isolated from mononuclear cells using EasySepTM human CD34 positive selection kit (Stemcell Technologies, Vancouver, BC, Canada). CD34+CD38−CD45RA−CD90+CD49f+ HSCs were sorted using a FACSAria III flow cytometer (BD Biosciences).” for “differentiation.”
as §1, with “time. […]” for “time.”

The subject of test [8] is human HSCs. Type of test: cell-based. The following applies: TNF with other participating cytokines. Here is the method:
FIG. 3C depicts a chart of long-term culture and TNF stimulation of human hematopoietic stem cells (HSCs). Cells were cultured on the microfluidic device in the absence of TNF (control) and 1 ng/ml TNF, for up to 5 days. […] N indicates cell numbers per chamber. […] D represents dynamic cytokine inputs, daily variation between 0.1 and 10 ng/ml.
Besides being a signaling protein involved in systemic inflammation, TNF-alpha is also widely employed to mimic the post-transplantation signaling environment (Mohabbat, et al., 2012). To mimic clinical hematopoietic stem cell transplantation (HSCT), different doses of TNF-alpha are directed to designated culture chambers housing HSCs by programmed medium exchange procedures. […] In both cases, cells proliferate at a similar, if not higher, rate than those in bulk experiments in traditional culture dishes.
Murine hematopoietic stem cells (HSC) are isolated by FACSAria III flow cytometer (BD Biosciences) as Lin−/c-Kit+/Sca-1+/CD48−/CD150+/CD34− (lineage, Lin: CD3e/CD11b/CD19/CD41/B220/Gr-1/Ter-119), which are approximately 50% pure HSCs. Macrophage colony-stimulating factor (M-CSF), a myeloid cytokine released during infection and inflammation, is employed to induce HSCs differentiation. Human CD34+ cells were isolated from mononuclear cells using EasySepTM human CD34 positive selection kit (Stemcell Technologies, Vancouver, BC, Canada). […]

A value given as a limit tells only on which side of the number the result lay.

Turning to TNF-alpha, in test [1] (0.1 and 0.2 ng/ml, first pulse, single cell level), the “single cell response to pulse stimulation (NF-κB)” value was “all cells respond to the first pulse stimulation”. In addition, the “cytoplasm NF-κB level” value in test [1] (prolonged incubation and stimulation for one week) is listed as “proportional to TNF-alpha concentration”.

For the substance PDGF, the cell fate outcome in test [2] (DLL in day-1, ligand moved to day-2) is listed as “promoting differentiation”; in test [2] (ligand at day 1), “NSCs self-renewal”. For the same substance, the “cell number relative to control” value in test [3] (ligand added at day 1) is on record as 85.4 % of the control. In addition, the “Hes5 expression, mean ratio relative to control” value is 1.22 in test [4] (PDGF present, without DLL); 1.37 in test [4] (PDGF present, without DLL, CXCL); 1.56 in test [4] (PDGF present, without DLL, CXCL or EGF); at least 1.11 in test [4] (ligand present). The “increase of Hes5 expression by a factor” value in test [4] (permutation test) came out at 1.06 factor. Moreover, the “Hes5 expression relative to control” value in test [4] (permutation test, combined with DLL) is 99.3 % of the control level; in test [6] (DLL added at day 1, ligand applied at day 2), 89.2 % of the control level; in test [6] (ligand added at day 1), 126.6 % of the control. In addition, the “increase of Hes5 level from its initial value” in test [5] is on record as “around 25%”. For the same substance, the Hes5 expression outcome in test [6] (decision tree, ligand present on the 1st day of culture) was “high Hes5 expression levels”.

Turning to “EGF: signaling ligand whose receptor is highly expressed during mouse forebrain development (NSYPGCPSSYDGYCLNGGVCMHIESLDSYTCNCVIGYSGDRCQTRDLRWWELR; not fully specified; Epidermal growth factor; UniProt P01132 977-1029, looked up)”, the Hes5 expression entry in test [2] (six-ligand sequence, ligand application moved to day 6) was “significant reduction in Hes5 expression”. For the same substance, the “Hes5 expression and cell numbers” value in test [2] (six-ligand sequence, ligand delivered on day 2) is “high Hes5 expression levels and unchanged cell numbers”. Further, the “cell number raised by a factor” value in test [3] (CXCL added at day 1, ligand added at day 2) was determined as 1.19 factor; in test [3] (Jagged added at day 1, ligand added at day 2), 1.38 factor. In addition, the “effect on cell number” value in test [3] (ligand added at day 1 alone) was “does not introduce significant increase of cell number”. Besides, the increased cell number in test [7] is reported as 60%. The “Hes5 expression relative to control” value in test [6] (ligand added at day 1) is 86.8 % of the control.

Regarding “IFNγ: cytokine combined with TNF on human HSCs”, the “effect on TNF induced cell death” value in test [8] is on record as “neutralize TNF induced cell death”.
